This note sets out measurements from patent publication US11878970B2, “Allosteric chromenone inhibitors of phosphoinositide 3-kinase (PI3K) for the treatment of disease” (Petra Pharma Corporation, priority 2021, dated 2024).

Structures are written as SMILES.

For experiment [1], the target named is T1, PI3K-α (PIK3CA) wild-type (WT), p110α/p85α complex (Homo sapiens, UniProt P42336).
T1 construct: Recombinant, catalytically active human full length PIK3KA Wild-type and H1047R mutant; 6×His (N); purchased EMD Millipore Sigma 14-602M
Put plainly: PI3K-alpha kinase (PIK3CA) biochemical activity, ADP-Glo, wild-type. The conditions noted are these: Soy PI lipid substrate. The source says: (§1) PI3K-Alpha Kinase (PIK3CA) Activity, Wild-Type and H1047R Mutant and Determining IC50 Values for Inhibitors
(§2) Recombinant, catalytically active human full length PIK3KA Wild-type and H1047R mutant were purchased as 1:1 complex of N-terminal 6×his tagged p110α (catalytic) and untagged p85α (regulatory subunit) from EMD Millipore Sigma (cat. no. 14-602M and 14-792M, respectively). PIP2diC8 (Avanti Polar Lipids Inc., cat. no. 850185) or Soy PI (Avanti Polar Lipids Inc., cat. No. 840044P) was used as lipid substrate. PIP2diC8 or PI lyophilized powder was dissolved in milliQ water to a concentration of 1 mM just before use. 10 mM stock compounds in DMSO were serially diluted 1:3 to generate a 10-point curve and plated using an acoustic liquid handler system (Echo 550 series instrument, Labcyte). A 10× intermediate compound plate (200 uM starting compound concentration and 10% DMSO) was prepared before starting the reaction. A typical reaction mixture (50 uL) comprised 40 mM HEPES buffer, pH 7.4, 25 mM MgCl2, 0.01% v/v triton-X-100, 1% v/v DMSO, 20 mM NaCl, 1-5 nM WT or H1047R PI3K protein, 20 uM ATP, and 50 uM PIP2diC8 or Soy PI. 1% DMSO buffer alone without test compound was employed as MAX control (full activity in the absence of any inhibitor), and no enzyme control was used to determine the level of background Adenosine 5′-diphosphate (ADP) (MIN control). First, Wild-type (WT) and H1047R mutant protein in kinase buffer with all components except ATP were incubated with or without compound at 27° C. for 1 h. After the pre-incubation, the reaction was initiated by the addition of 20 uL of 50 uM ATP (20 uM final concentration). The reaction was allowed to proceed until about 10% conversion of ATP (2 uM ADP) at 27° C. After that time, 5 uL of reaction was mixed with 5 uL of ADP-Kinase Glo Reagent (ADP-Glo Kinase assay kit, Promega cat. no. V9102) supplemented with MgCl2 10 mM to stop the reaction and deplete the remaining ATP for 40 min at room temperature. Then, 10 uL of Kinase Detection Reagent (ADP-Glo Kinase assay kit, Promega cat. no. V9102) was added to simultaneously convert ADP to ATP and allow the newly synthesized ATP to be measured using a luciferase/luciferin reaction. After 30 min at room temperature the light generated was measured using a luminometer (EnVision plate reader, Perkin Elmer). Process data through Genedata-Screener tool. Relative IC50 values are determined using luminescence units by calculating percent inhibition with respect to on-plate “MIN” and “MAX” controls. Data was analyzed using a 4-parameter nonlinear logistic equation (four-parameter logistic concentration-response curve): Y=bot+[(top−bot)/1+(x/IC50)slope] where Y=% inhibition, X=concentration yielding y % inhibition, Bottom=minimum value of y attained by curve, Top=maximum value of y attained by curve and Slope=steepness of curve at IC50. % Inh=[(median Max−x/median Max−median Min)]·100 IC50: concentration of compound that reduces a given response (ligand binding, enzyme response) by 50%. IC50 relative: concentration giving half the compound's maximum response.

For experiment [2], the target named is T2, PI3K-α (PIK3CA) H1047R mutant, p110α/p85α complex (Homo sapiens, UniProt P42336, H1047R).
T2 construct: Recombinant, catalytically active human full length PIK3KA Wild-type and H1047R mutant; 6×His (N); purchased EMD Millipore Sigma 14-792M
T2 sequence (P42336 whole entry H1047R): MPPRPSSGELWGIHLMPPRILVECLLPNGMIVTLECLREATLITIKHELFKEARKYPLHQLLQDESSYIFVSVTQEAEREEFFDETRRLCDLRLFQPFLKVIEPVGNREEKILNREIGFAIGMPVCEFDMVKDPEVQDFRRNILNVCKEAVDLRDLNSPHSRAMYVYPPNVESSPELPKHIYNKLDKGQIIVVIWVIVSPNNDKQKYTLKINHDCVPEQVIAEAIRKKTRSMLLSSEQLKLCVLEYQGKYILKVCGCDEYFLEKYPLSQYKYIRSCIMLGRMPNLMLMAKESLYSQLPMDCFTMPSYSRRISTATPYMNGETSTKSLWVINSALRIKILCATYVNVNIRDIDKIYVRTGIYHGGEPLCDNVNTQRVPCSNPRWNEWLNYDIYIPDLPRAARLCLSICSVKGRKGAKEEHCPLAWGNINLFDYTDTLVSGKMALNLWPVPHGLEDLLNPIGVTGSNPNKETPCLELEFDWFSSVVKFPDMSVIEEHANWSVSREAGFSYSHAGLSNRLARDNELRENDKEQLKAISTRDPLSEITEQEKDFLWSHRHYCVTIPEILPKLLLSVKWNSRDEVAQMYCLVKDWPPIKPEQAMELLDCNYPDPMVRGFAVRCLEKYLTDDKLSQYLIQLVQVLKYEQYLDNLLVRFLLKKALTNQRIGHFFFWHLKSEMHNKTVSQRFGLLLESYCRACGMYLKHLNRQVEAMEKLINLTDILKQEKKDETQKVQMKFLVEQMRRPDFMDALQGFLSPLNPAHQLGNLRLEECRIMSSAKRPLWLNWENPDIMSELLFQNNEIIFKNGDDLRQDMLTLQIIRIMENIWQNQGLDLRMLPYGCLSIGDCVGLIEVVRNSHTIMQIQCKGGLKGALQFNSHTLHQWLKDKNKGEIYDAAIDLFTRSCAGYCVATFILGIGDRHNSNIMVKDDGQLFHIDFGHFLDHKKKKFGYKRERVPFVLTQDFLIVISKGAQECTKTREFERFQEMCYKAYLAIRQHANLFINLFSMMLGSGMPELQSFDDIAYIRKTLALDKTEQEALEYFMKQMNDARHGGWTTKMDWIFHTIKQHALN
T2 sequence (P27986 whole entry partner): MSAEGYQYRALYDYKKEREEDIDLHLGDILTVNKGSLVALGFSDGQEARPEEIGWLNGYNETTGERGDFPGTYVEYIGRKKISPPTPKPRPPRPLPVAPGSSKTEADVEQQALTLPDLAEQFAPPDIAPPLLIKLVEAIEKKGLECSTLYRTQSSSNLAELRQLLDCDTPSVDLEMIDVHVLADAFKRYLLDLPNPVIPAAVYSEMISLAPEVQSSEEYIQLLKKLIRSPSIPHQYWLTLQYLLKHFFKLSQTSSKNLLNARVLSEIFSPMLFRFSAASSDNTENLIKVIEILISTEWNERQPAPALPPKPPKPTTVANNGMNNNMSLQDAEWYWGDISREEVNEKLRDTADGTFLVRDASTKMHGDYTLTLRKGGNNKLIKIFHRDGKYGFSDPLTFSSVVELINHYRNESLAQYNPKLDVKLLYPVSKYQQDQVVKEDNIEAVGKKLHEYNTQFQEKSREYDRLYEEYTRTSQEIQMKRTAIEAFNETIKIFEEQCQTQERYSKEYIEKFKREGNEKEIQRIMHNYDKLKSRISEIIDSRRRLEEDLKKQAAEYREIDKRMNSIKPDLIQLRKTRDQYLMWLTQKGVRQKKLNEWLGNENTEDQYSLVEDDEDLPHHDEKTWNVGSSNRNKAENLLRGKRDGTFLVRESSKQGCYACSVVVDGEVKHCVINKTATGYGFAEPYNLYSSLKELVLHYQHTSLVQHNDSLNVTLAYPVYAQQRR
Put plainly: PI3K-alpha kinase (PIK3CA) biochemical activity, ADP-Glo, H1047R mutant. The conditions noted are these: Soy PI lipid substrate.
Excerpt: as §1, §2

One may read the IC50 as the midpoint of a concentration-inhibition curve. Regarding `Cc1cc(C(C)Nc2ccccc2C(=O)O)c2oc(-c3ccc4cnncc4c3)cc(=O)c2c1` (single isomer, unassigned) [Example 47, 2-[1-(6-Methyl-4-oxo-2-phthalazin-6-yl-chromen-8-yl)ethylamino]benzoic acid], the IC50 in experiment [1] was 1 to 5 µM; in experiment [2], less than 0.5 µM.
Turning to `Cc1cc(C(C)Nc2ccc(C)nc2C(=O)O)c2oc(-c3ccc4nn(C)cc4c3)cc(=O)c2c1` (single isomer, unassigned) [Example 180, 6-Methyl-3-[1-[6-methyl-2-(2-methylindazol-5-yl)-4-oxo-chromen-8-yl]ethylamino]pyridine-2-carboxylic acid], the IC50 in experiment [1] is 1 to 5 µM; in experiment [2], less than 0.5 µM.
For the compound `Cc1cc(C(C)Nc2ccccc2C(=O)O)c2oc(-c3ccc4nc(C)cn4c3)c(C#N)c(=O)c2c1` (single isomer, unassigned) [Example 118, 2-[1-[3-Cyano-6-methyl-2-(2-methylimidazo[1,2-a]pyridin-6-yl)-4-oxo-chromen-8-yl]ethylamino]benzoic acid], the IC50 in experiment [1] was 1 to 5 µM; in experiment [2], less than 0.5 µM.
In the case of `Cc1cc(C(C)Nc2ccccc2C(=O)O)c2oc(-c3c[nH]c4ccccc34)c(C)c(=O)c2c1` (single isomer, unassigned) [Example 154, 2-[1-[2-(1H-Indol-3-yl)-3,6-dimethyl-4-oxo-chromen-8-yl]ethylamino]benzoic acid], the IC50 was 1 to 5 µM in experiment [1] and less than 0.5 µM in experiment [2].
With `Cc1cc(C(C)Nc2ccccc2C(=O)O)c2oc(-c3cn(C)c4ccccc34)cc(=O)c2c1` (single isomer, unassigned) [Example 143, 2-[1-[6-Methyl-2-(1-methylindol-3-yl)-4-oxo-chromen-8-yl]ethylamino]benzoic acid], the IC50 in experiment [1] was 0.5 to 1 µM; in experiment [2], less than 0.5 µM.
Regarding `Cc1cc(C(C)Nc2ccccc2C(=O)O)c2oc(-c3ccn4c(-c5ncco5)c(C)nc4c3)cc(=O)c2c1` (single isomer, unassigned) [Example 133, 2-[1-[6-Methyl-2-(2-methyl-3-oxazol-2-yl-imidazo[1,2-a]pyridin-7-yl)-4-oxo-chromen-8-yl]ethylamino]benzoic acid], the IC50 in experiment [1] and in experiment [2] was more than 10 µM throughout.
Regarding `Cc1cc(C(C)Nc2cccc(F)c2C(=O)O)c2oc(-c3ccc4nn(C)cc4c3)cc(=O)c2c1` (stereo not shown) [Example 103, 2-Fluoro-6-[1-[6-methyl-2-(2-methylindazol-5-yl)-4-oxo-chromen-8-yl]ethylamino]benzoic acid], the IC50 in experiment [1] is 1 to 5 µM; in experiment [2] it was less than 0.5 µM.
`Cc1cc(C(C)Nc2ccccc2C(=O)O)c2oc(-c3cnn4cccnc34)cc(=O)c2c1` (stereo not shown) [Example 6, 2-[1-(6-Methyl-4-oxo-2-pyrazolo[1,5-a]pyrimidin-3-yl-chromen-8-yl)ethylamino]benzoic acid]: the IC50 is 1 to 5 µM in experiment [1] and less than 0.5 µM in experiment [2].
Take `Cc1cc(C(C)Nc2ccccc2C(=O)O)c2oc(-c3nn(C)c4ccccc34)c(C)c(=O)c2c1` (single isomer, unassigned) [Example 146, 2-[1-[3,6-Dimethyl-2-(1-methylindazol-3-yl)-4-oxo-chromen-8-yl]ethylamino]benzoic acid]: the IC50 is 0.5 to 1 µM in experiment [1] and less than 0.5 µM in experiment [2].
Consider `Cc1cc(C(C)Nc2ccccc2C(=O)O)c2oc(-c3ccc4nccn4n3)cc(=O)c2c1` (single isomer, unassigned) [Example 36, 2-[1-(2-Imidazo[1,2-b]pyridazin-6-yl-6-methyl-4-oxo-chromen-8-yl)ethylamino]benzoic acid], for which the IC50 in experiment [1] was 1 to 5 µM; in experiment [2], less than 0.5 µM.
In the same order, the values of `Cc1cc(C(C)Nc2ccccc2C(=O)O)c2oc(-c3ccc4cc[nH]c4c3)cc(=O)c2c1` (single isomer, unassigned) [Example 21, 2-[1-[2-(1H-Indol-6-yl)-6-methyl-4-oxo-chromen-8-yl]ethylamino]benzoic acid] are 0.5 to 1 µM and less than 0.5 µM.
In the same order, the values of `Cc1c(-c2cc3ccccc3[nH]2)oc2c(C(C)Nc3ccccc3C(=O)O)cc(F)cc2c1=O` (single isomer, unassigned) [Example 129, 2-[1-[6-Fluoro-2-(1H-indol-2-yl)-3-methyl-4-oxo-chromen-8-yl]ethylamino]benzoic acid] are 0.5 to 1 µM and less than 0.5 µM.
As to `Cc1cc(C(C)Nc2ccccc2C(=O)O)c2oc(-c3ccc4cn[nH]c4n3)cc(=O)c2c1` (single isomer, unassigned) [Example 121, 2-[1-[6-Methyl-4-oxo-2-(1H-pyrazolo[3,4-b]pyridin-6-yl)chromen-8-yl]ethylamino]benzoic acid], the IC50 in experiment [1] is 1 to 5 µM; in experiment [2], less than 0.5 µM.
As to `Cc1cc(C(C)Nc2ccccc2C(=O)O)c2oc(-c3ccn4c(-c5cccnc5)c(C)nc4c3)cc(=O)c2c1` (single isomer, unassigned) [Example 112, 2-[1-[6-Methyl-2-[2-methyl-3-(3-pyridyl)imidazo[1,2-a]pyridin-7-yl]-4-oxo-chromen-8-yl]ethylamino]benzoic acid], the results for the IC50 in experiment [1] and in experiment [2] were 1 to 5 µM and 0.5 to 1 µM, respectively.
In the same order, the values of `Cc1cc(C(C)Nc2ccccc2C(=O)O)c2oc(-c3ncc4cc(C)[nH]c4n3)cc(=O)c2c1` (single isomer, unassigned) [Example 72, 2-[1-[6-Methyl-2-(6-methyl-7H-pyrrolo[2,3-d]pyrimidin-2-yl)-4-oxo-chromen-8-yl]ethylamino]benzoic acid] are 0.5 to 1 µM and less than 0.5 µM.
In the same order, the values of `Cc1cc(C(C)Nc2ccccc2C(=O)O)c2oc(-c3cnc4cn(C)nc4c3)cc(=O)c2c1` (single isomer, unassigned) [Example 44, 2-[1-[6-Methyl-2-(2-methylpyrazolo[4,3-b]pyridin-6-yl)-4-oxo-chromen-8-yl]ethylamino]benzoic acid] are 5 to 10 µM and 1 to 5 µM.
With `Cc1cc(C(C)Nc2ccccc2C(=O)O)c2oc(-c3cc4ccncc4o3)cc(=O)c2c1` (stereo not shown) [Example 152, 2-[1-(2-Furo[2,3-c]pyridin-2-yl-6-methyl-4-oxo-chromen-8-yl)ethylamino]benzoic acid], the IC50 is 1 to 5 µM in experiment [1] and less than 0.5 µM in experiment [2].
As to `CC(Nc1ccc(Cl)nc1C(=O)O)c1cc(C(F)(F)F)cc2c(=O)cc(-c3cc(Cl)c4nn(C)cc4c3)oc12` (stereo not shown) [Example 173, 6-Chloro-3-[1-[2-(7-chloro-2-methyl-indazol-5-yl)-4-oxo-6-(trifluoromethyl)chromen-8-yl]ethylamino]pyridine-2-carboxylic acid], the values for the IC50 in experiment [1] and in experiment [2] were more than 10 µM and less than 0.5 µM, respectively.
In the same order, the values of `Cc1cc(C(C)Nc2ccccc2C(=O)O)c2oc(-c3ccc4cc(C)nn4c3)cc(=O)c2c1` (single isomer, unassigned) [Example 134, 2-[1-[6-Methyl-2-(2-methylpyrazolo[1,5-a]pyridin-6-yl)-4-oxo-chromen-8-yl]ethylamino]benzoic acid] are 1 to 5 µM and less than 0.5 µM.
As to `Cc1cc(C(C)Nc2ccccc2C(=O)O)c2oc(-c3ccc4nn(C)cc4c3)cc(=O)c2c1` (stereo not shown) [Example 13, 2-[1-[6-Methyl-2-(2-methylindazol-5-yl)-4-oxo-chromen-8-yl]ethylamino]benzoic acid], the IC50 in experiment [1] and in experiment [2] was less than 0.5 µM in each case.
